Converted amounts (≈) assume the structure as drawn. Where two headings read alike, the source gives them in different places.
What was measured:
mice = settings: mouse, in vivo, iv, 500 mg/kg
solubility = format: physicochemical
[1] = tested on: Gram-positive and Gram-negative bacteria; test: inhibitory activity against growth of bacteria; format: cell-based; settings: for antibacterial activity relative to another RIT 2214 form: compared with the RIT 2214 form named in the sentence
Protocol: (§1) Antibiotic RIT D-2214 has been tested in form of the mono ammonium salt in position 3 of the penam nucleus and, for that reason, is herein below charcterized as this monoammonium salt.
(§2) The inhibitory levels were determined by the broth dilution test. A series of tubes containing varied concentrations of the monoammonium salt of antibiotic RIT D-2214 were inoculated with the test organism to determine the minimum concentration of the ammonium salt of antibiotic RIT D-2214 in mcg/ml. in the broth substrate which inhibited organism growth for a period of about twenty hours at 35° C.

Corynebacterium xerosis = test: broth dilution test, minimum inhibitory concentration; format: cell-based; settings: about 20 hours at 35° C, tested as monoammonium salt
Shigella sonnei = test: as above; format: cell-based; settings: about 20 hours at 35° C, tested as monoammonium salt
Protocol: as §1, §2

[2] = tested on: Staphylococcus aureus Pen.resist.; test: as above; format: cell-based; settings: penicillin resistant, about 20 hours at 35° C, tested as monoammonium salt
Bacillus subtilis = test: as above; format: cell-based; settings: about 20 hours at 35° C, tested as monoammonium salt
E. coli Pen. resistant = test: as above; format: cell-based; settings: Escherichia coli, penicillin resistant, about 20 hours at 35° C, tested as monoammonium salt
Alcaligenes faecalis = test: as above; format: cell-based; settings: about 20 hours at 35° C, tested as monoammonium salt
Klebsiella pneumoniae = test: as above; format: cell-based; settings: about 20 hours at 35° C, tested as monoammonium salt
Salmonella meleagridis = test: as above; format: cell-based; settings: about 20 hours at 35° C, tested as monoammonium salt
Salmonella typhi = test: as above; format: cell-based; settings: Salmonella enterica, 20 h, read-out: Minimum Inhibitory concentration
Salmonella typhimurium = test: as above; format: cell-based; settings: Salmonella enterica, about 20 hours at 35° C, tested as monoammonium salt
Salmonella panama = test: as above; format: cell-based; settings: Salmonella enterica, about 20 hours at 35° C, tested as monoammonium salt
Salmonella anatum = test: as above; format: cell-based; settings: Salmonella enterica, about 20 hours at 35° C, tested as monoammonium salt
Proteus morganii = test: as above; format: cell-based; settings: Morganella morganii, about 20 hours at 35° C, tested as monoammonium salt
Brucella abortus = test: microbe, parasite or virus in culture; format: cell-based; settings: 20 h, read-out: Minimum Inhibitory concentration
[3] = tested on: Bordetella bronchiseptica; test: broth dilution test, minimum inhibitory concentration; format: cell-based; settings: about 20 hours at 35° C, tested as monoammonium salt
Pseudomonas aeruginosa = test: as above; format: cell-based; settings: about 20 hours at 35° C, tested as monoammonium salt
Escherichia coli 47 = test: mice protection test; format: in vivo; settings: Escherichia coli, 47, sc, 72 h; s.c., one hour after intravenous infection, observed 3 days; read-out: ED50 (total dose required to protect 50% of the infected mice)
Protocol: (§3) Comparative trials with ampicillin were performed in vivo according to the usual mice protection test procedure. The test compound was administered in graded dilutions to mice either subcutaneously (s.c.) in water or orally (or.) in combination with calcium carbonate one hour after intravenous infection with uniformly lethal doses of the test organism.

Escherichia coli 9 = test: mice protection test; format: in vivo; settings: Escherichia coli, 9, sc, 72 h; s.c., one hour after intravenous infection, observed 3 days; read-out: ED50 (total dose required to protect 50% of the infected mice)
Protocol: as §3

[4] = tested on: Klebsiella pneumoniae SK&F 4200; test: mice protection test; format: in vivo; settings: 72 h, one hour after intravenous infection, observed 3 days, read-out: ED50 (total dose required to protect 50% of the infected mice)
Protocol: as §3

Proteus mirabilis 11 = test: mice protection test; format: in vivo; settings: Proteus mirabilis, 11, sc, 72 h; s.c., one hour after intravenous infection, observed 3 days; read-out: ED50 (total dose required to protect 50% of the infected mice)
Protocol: as §3

[5] = tested on: Salmonella brandebourg 22; test: mice protection test; format: in vivo; settings: Salmonella, 22, sc, 72 h; s.c., one hour after intravenous infection, observed 3 days; read-out: ED50 (total dose required to protect 50% of the infected mice)
Protocol: as §3

[6] = tested on: Salmonella enteritidis 24; test: mice protection test; format: in vivo; settings: Salmonella enterica, sc, 72 h, s.c., one hour after intravenous infection, observed 3 days, read-out: ED50 (total dose required to protect 50% of the infected mice)
Protocol: as §3

Salmonella panama 20 = test: mice protection test; format: in vivo; settings: Salmonella enterica, 20, sc, 72 h; s.c., one hour after intravenous infection, observed 3 days; read-out: ED50 (total dose required to protect 50% of the infected mice)
Protocol: as §3

Shigella flexneri 25 = test: mice protection test; format: in vivo; settings: Shigella flexneri, 25, sc, 72 h; s.c., one hour after intravenous infection, observed 3 days; read-out: ED50 (total dose required to protect 50% of the infected mice)
Protocol: as §3

[7] = tested on: Staphylococcus aureus 663; test: mice protection test; format: in vivo; settings: Staphylococcus aureus, 663, sc, 72 h; s.c., one hour after intravenous infection, observed 3 days; read-out: ED50 (total dose required to protect 50% of the infected mice)
Protocol: as §3

[8] = tested on: Vibrio parahaemoliticus 194; test: mice protection test; format: in vivo; settings: Vibrio, 194, 72 h; oral with calcium carbonate, one hour after intravenous infection, observed 3 days; read-out: ED50 (total dose required to protect 50% of the infected mice)
Protocol: as §3

in vivo [9] = test: in vivo; set-up: species or system mice; settings: mouse, sc, 20 mg/kg
Excerpt: (§4) Plasma samples were adequately diluted with sterile water and assayed according to the usual agar diffusion method, using Bacillus subtilis ATCC 6633 as the test organism.

in vivo [10] = test: in vivo; set-up: species or system rats; settings: rat, sc, 20 mg/kg
Excerpt: as §4

in vivo [11] = test: in vivo; set-up: species or system dogs; settings: dog, sc, 20 mg/kg
Excerpt: as §4

physchem = format: physicochemical; settings: reconstituted gastric juice, pH 1.3
Excerpt: Antibiotic RIT D-2214 can be colorimetrically assayed by the classical hydroxylamine method of penicillin assay. […] Recoveries were estimated according to the hydroxylamine assay method.

For `CC1(C)S[C@@H]2[C@H](NC(=O)CSC[C@@H](N)C(=O)O)C(=O)N2[C@H]1C(=O)O`, the detectable toxicity (mice) was “does not show any detectable toxicity”, the solubility in methanol (solubility; methanol) was “slightly soluble in methanol” and the “solubility in other organic solvents” value (solubility; organic solvents other than methanol) was “insoluble in other organic solvents”. For the same compound, the solubility in water (solubility; water) was “very soluble in water”.

With `CC1(C)S[C@@H]2[C@H](NC(=O)CSC[C@H](N)C(=O)O)C(=O)N2[C@H]1C(=O)O` the “inhibitory activity against the growth of bacteria” value ([1]; Gram-positive and Gram-negative bacteria) was “active against Grampositive and negative bacteria” and the “antibacterial activity relative to another RIT 2214 form” value [1] was “less than the monoammonium salt of RIT D-2214”.

For `CC1(C)S[C@@H]2[C@H](NC(=O)CSCC(N)C(=O)O)C(=O)N2[C@H]1C(=O)O` (mixture of isomers) [RIT DL-2214], the “antibacterial activity relative to another RIT 2214 form” value [1] was “approximately half”.

`CC1(C)S[C@@H]2[C@H](NC(=O)[C@H](N)c3ccccc3)C(=O)N2[C@H]1C(=O)O` [Ampicillin, ampicillin, reference compound] gave an MIC (Corynebacterium xerosis) of 0.1 µg/mL, an MIC (Shigella sonnei) of 2.5 µg/mL and an MIC [2] of 20 µg/mL. It also gave an MIC (Bacillus subtilis) of 0.3 µg/mL, an MIC (E. coli Pen. resistant) of 80 µg/mL and an MIC (Alcaligenes faecalis) of 1.6 µg/mL. The MIC (Klebsiella pneumoniae) was 40 µg/mL, the MIC (Salmonella meleagridis) was 0.6 µg/mL and the MIC (Salmonella typhi) was 0.6 µg/mL (≈ 1.72 µM). It also gave an MIC (Salmonella typhimurium) of 40 µg/mL, an MIC (Salmonella panama) of 2.5 µg/mL and an MIC (Salmonella anatum) of 0.6 µg/mL. For the same compound, the MIC (Proteus morganii) was 20 µg/mL, the MIC (Brucella abortus) was 0.6 µg/mL (≈ 1.72 µM) and the MIC [3] was 0.6 µg/mL. The MIC (Pseudomonas aeruginosa) was 80 µg/mL, the ED50 (Escherichia coli 47) was 23.6 mg/kg and the ED50 (Escherichia coli 9) was 11.5 mg/kg. The ED50 ([4]; oral with calcium carbonate) was 50.4 mg/kg, the ED50 ([4]; sc, s.c.) was 36.7 mg/kg and the ED50 (Proteus mirabilis 11) was 14.8 mg/kg. It also gave an ED50 [5] of 36.4 mg/kg, an ED50 [6] of 55.6 mg/kg and an ED50 (Salmonella panama 20) of 22 mg/kg. It also gave an ED50 (Shigella flexneri 25) greater than 100 mg/kg, an ED50 [7] of less than 11 mg/kg and an ED50 [8] of 17.9 mg/kg. It also gave a concentration at 5 min (in vivo [9]) of 6500 ng/mL, a concentration at 0.25 h (in vivo [9]) of 9000 ng/mL and a concentration at 0.5 h (in vivo [9]) of 3500 ng/mL. For the same compound, the concentration at 1 h (in vivo [9]) was 1000 ng/mL, the concentration at 5 min (in vivo [10]) was 7000 ng/mL and the concentration at 0.25 h (in vivo [10]) was 13000 ng/mL. For the same compound, the concentration at 1 h (in vivo [10]) was 5000 ng/mL, the concentration at 2 h (in vivo [10]) was 2500 ng/mL and the concentration at 0.25 h (in vivo [11]) was 13000 ng/mL. For the same compound, the concentration at 0.5 h (in vivo [11]) was 18000 ng/mL, the concentration at 1 h (in vivo [11]) was 18000 ng/mL and the concentration at 2 h (in vivo [11]) was 9000 ng/mL. The half-life (physchem) was 6.5 h.

Source: patent US4002530A, “6-Aminopenicillanic acid derivative” (Recherche et Industrie Therapeutiques (R.I.T.), priority 1975, dated 1977)
